Test results reported in BigSolDB 2.1.

CCOc1ccc2ccccc2c1C(=O)N[C@@H]1C(=O)N2[C@@H]1SC(C)(C)[C@@H]2C(=O)[O-].[Na+]
solubility (mole fraction)
Conditions	278.15 K	283.15 K	288.15 K	293.15 K	298.15 K	303.15 K	308.15 K	313.15 K	318.15 K
in acetone	4.88e-05	7.1e-05	0.000106	0.000158	0.000202	0.000255	0.000309	0.000353	0.000401
in acetonitrile	2.25e-05	2.97e-05	4.09e-05	6.27e-05	7.46e-05	9.3e-05	0.000111	0.000128	0.000144
in ethanol	0.000161	0.000201	0.000246	0.00032	0.000372	0.000442	0.000509	0.000562	0.000615
in isopropanol	0.000155	0.000177	0.000201	0.000229	0.000261	0.000297	0.000337	0.000367	0.000395
in methanol	0.000605	0.000803	0.00101	0.00121	0.00149	0.00173	0.002	0.00226	0.00251
in n-butyl acetate	2.14e-05	3.21e-05	4.3e-05	5.85e-05	7.24e-05	8.6e-05	9.63e-05	0.000108	0.000117
